These results are taken from patent US4098823A, “Monospiroalkyl derivatives of prostaglandins” (Miles Laboratories, Inc., priority 1977, dated 1978).

Assay [1] relates to rat stomach fundus. The experiment in a line: Cascade Assay, stomach (smooth muscle stimulant effect). Conditions: superfused, 50% of maximum (PGE1). The class given is cell-based. The method in brief:
(§1)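 Rabbit aortic strip (4 g tension), rat stomach fundus, rat colon and chick rectum (1 g) in cascade, superfused at 10 ml/min with 37° C Krebs containing cholinergic, adrenergic, serotonin and histamine blockers. Doses of 0.001–100,000 ng dripped on at 10–20 min intervals; maximal tension rise gave graphical ED50 per tissue.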

Assay [2] concerns Femoral Blood Flow. The experiment in a line: Effects on Femoral Blood Flow in the Dog. The assay is classed as in vivo. Conditions: anesthetized mongrel dog, intraarterial, 0.001 to 10 mcg. The method, then:
The peripheral vasodilator or constrictor effects of these compounds were determined in mongrel dogs of either sex, weighing between 10 and 20 kg anesthestized intravenously with 35 mg/kg of sodium pentobarbital. An external iliac artery was dissected immediately above the femoral arch for a length of approximately 5 cm and a previously calibrated, non-connulating electromagnetic flowmeter sensor with a lumen between 2.5 and 3.5 mm was placed snugly around the vessel. Cannulas were placed in a branch of the artery arising distally to the location of the flowmeter sensor for intraarterial drug administrations, in the contralateral femoral artery for systemic blood pressure recordings and in the trachea for artificial respiration with room air. Femoral blood flow and systemic blood pressure were continously recorded with an electromagnetic flowmeter and pressure tranducer, respectively.
After an adequate control period, test compounds were injected intraarterially at one log-spaced doses ranging from 0.001 to 10 mcg., in a volume of 0.5 ml and at 5 to 10 minute intervals. Maximum changes in bloodflow, as well as any variations in blood pressure, were tabulated for each dose in absolute values (ml/min. and mmHg). The calculations were made taking as control values those existing immediately before administration of each dose. The direction of the observed change (plus for increase and minus for decrease) was also noted. The dose changing bloodflow by 100 ml/min (ED100 ml/min) was calculated graphically and was used for scoring activity as follows: […]

Assay [3] deals with rat colon. The assay is described as follows: Cascade Assay, colon (smooth muscle stimulant effect). The assay is classed as cell-based. Conditions: superfused, 50% of maximum (PGF2α). The gist of the method: as §1
The subject of assay [4] is Blood Pressure and Heart Rate. The experiment in a line: Effects on Blood Pressure and Heart Rate in the Anesthetized Cat. The class given is in vivo. The conditions noted are these: Felis catus, intravenous, 0.01 to 10.0 mcg/kg, scored only on hypotension, read-out: Test D Activity Value (ED50 mmHg, decrease in blood pressure). The gist of the method:
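Cats of either sex anesthetized with pentobarbital sodium (35 mg/kg i.v.) plus barbital sodium (100 mg/kg i.v.), femoral arterial pressure and ECG-driven heart rate recorded. Compound given i.v. at one-log increasing doses, 0.01–10.0 mcg/kg, every 10 min. ED50 mmHg (dose lowering blood pressure by 50 mmHg) derived graphically from hypotension.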

Assay [5] concerns rabbit aortic strip. The assay is described as follows: Cascade Assay, aorta (smooth muscle stimulant effect). The assay is classed as cell-based. Conditions: superfused, 50% of maximum (PGA2). The method in brief: as §1
The subject of assay [6] is chick rectum. The experiment in a line: Cascade Assay, rectum (smooth muscle stimulant effect). The assay is classed as cell-based. Conditions: superfused, 50% of maximum (PGE1). The gist of the method:
as §1

Assay [7] concerns Gastric Secretion. The experiment in a line: Effects on Gastric Secretion in the Rat. The assay is classed as in vivo. Conditions: pylorus-ligated rat, subcutaneous, 2 x 1.5 mg/kg (total 3.0 mg/kg), 4 hours. The gist of the method:
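Rats (150-200 g, groups of six) fasted 48 h, pylorus ligated under ether. Compounds given s.c. in phosphate buffer pH 7.38 at 1.5 mg/kg immediately post-surgery and 2 h later (total 3.0 mg/kg). At 4 h, gastric volume and total acid (titration with 0.1 N NaOH, mEq) compared with vehicle controls by t-test.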

On to `COC(=O)CCCCCC[C@H]1C(=O)C[C@@H](O)[C@@H]1/C=C/[C@H](O)C1CC2(CCC2)C1` [TR-4120, Methyl 7-{3R-hydroxy-5-oxo-2R-[3R-hydroxy-3-(spiro[3.3]hept-2-yl)-1E-propenyl]cyclopent-1R-yl}heptanoate], for which the “Test E Cascade Assay, Stomach, Activity Value (ED50)” value in assay [1] is recorded as 0 (>10000). The “Test C Activity Value (ED100 ml/min, increase in femoral blood flow)” value in assay [2] is 0 (>10.0). Further, the “Test E Cascade Assay, Colon, Activity Value (ED50)” value in assay [3] was 0 (>10000). The ED (50 mmHg) in assay [4] was > 0.01 mg/kg. Also, the “Test E Cascade Assay, Aorta, Activity Value (ED50)” value in assay [5] was 0 (>10000). The “Test E Cascade Assay, Rectum, Activity Value (ED50)” value in assay [6] is 1 (1001 - 10000). Besides, the “Test B Activity Value (% decrease in acidity, inhibition of gastric secretion)” value in assay [7] is given as 2 (26-50, significant).
